In ChEMBL document CHEMBL6078693, “Move over COVID, Tuberculosis Is Once again the Leading Cause of Death from a Single Infectious Disease” (J Med Chem, 2024) one finds IC50 and MIC data, which are given here for 1 compound.

Molecules are shown by their SMILES. ≈ marks a conversion by molar mass, not a printed value.

The test system of experiment [1] is Mycobacterium tuberculosis. Put plainly: Antimycobacterial activity against Mycobacterium tuberculosis. Type of experiment: functional, organism-based.
Experiment [2] has as its system Mycobacterium tuberculosis. Put plainly: Antimycobacterial activity against Mycobacterium tuberculosis H37Rv assessed as reduction in bacterial growth incubated for 7 days by resazurin dye based assay. The format is functional. The conditions noted are these: 168 h, time 7 day. On the technique in general: Alamar Blue is a resazurin reagent that responds to reducing activity.

Regarding `NC[C@H]1OB(O)c2c(OCCO)ccc(Cl)c21` [GANFEBOROLE], the IC50 (usually the concentration that gives 50% inhibition) in experiment [1] stood at 200 nM. The MIC (as a rule, the smallest concentration in the dilution series that meets the test's criterion for growth inhibition) in experiment [2] amounted to 0.08 µM (≈ 0.0206 µg/mL).
